The supplement of paper PMC11368000

Columns and labels:
Conditions in all cases: exposure time: 90 min
1118 = donor line of iPSC-derived cardiomyocytes; assay: POD (EC05) for increase in beat frequency (positive chronotrope) vs vehicle; higher = less potent (higher point of departure)
Description: (§1)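 Human iPSC-derived cardiomyocytes from 16 donors were exposed for 90 min at 37 °C to each PFAS at 0.1, 1, 10 and 100 µM in 0.5% DMSO, 384-well plates. Kinetic Ca2+ flux (FLIPR) and Hoechst nuclei counts were normalised to vehicle wells and fitted with a hierarchical Bayesian Hill model to give donor-specific PODs: EC05 for beat-rate increase or decrease and for decay-to-rise ratio increase (QT proxy), EC95 for peak-frequency loss (asystole), EC10 for total cell number loss. 0.03 µM is the lower bound.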

1531 = donor line of iPSC-derived cardiomyocytes; assay: as above
Description: as §1

11235 = donor line of iPSC-derived cardiomyocytes; assay: as above
Description: as §1

1565 [1] = donor line of iPSC-derived cardiomyocytes; assay: as above
Description: as §1

1516 [2] = donor line of iPSC-derived cardiomyocytes; assay: as above
Description: as §1

20084 [3] = donor line of iPSC-derived cardiomyocytes; assay: as above
Description: as §1

20032 [4] = donor line of iPSC-derived cardiomyocytes; assay: as above
Description: as §1

1309 [5] = donor line of iPSC-derived cardiomyocytes; assay: as above
Description: as §1

1518 = donor line of iPSC-derived cardiomyocytes; assay: as above
Description: as §1

1083 = donor line of iPSC-derived cardiomyocytes; assay: as above
Description: as §1

30171 = donor line of iPSC-derived cardiomyocytes; assay: as above
Description: as §1

1434 = donor line of iPSC-derived cardiomyocytes; assay: as above
Description: as §1

1392 = donor line of iPSC-derived cardiomyocytes; assay: POD (EC05) for decrease in beat frequency (negative chronotrope) vs vehicle; higher = less potent (higher point of departure)
In short: (§2)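 Human iPSC-derived cardiomyocytes from 16 donors were cultured 14 days in gelatin-coated 384-well plates and loaded 2 h with fluorescent Ca2+ dye. They were then exposed for 90 min at 37 °C to 0.1, 1, 10 and 100 µM (final, 0.5% DMSO). Ca2+ flux was recorded on a FLIPR Tetra (8 frames/s, 100 s) before and after exposure. Donor-specific points of departure came from hierarchical Bayesian Hill fits to vehicle-normalised beat frequency, decay-to-rise ratio or peak frequency. Thresholds were 5% change, or 95% loss for peak frequency.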

30145 = donor line of iPSC-derived cardiomyocytes; assay: as above
In short: as §2

1565 [6] = assay: as above
In short: as §2

1516 [7] = assay: as above
In short: as §2

20084 [8] = assay: as above
In short: as §2

20032 [9] = assay: as above
In short: as §2

1309 [10] = assay: as above
In short: as §2

1535 = donor line of iPSC-derived cardiomyocytes; assay: as above
In short: as §2

SMILES | POD vs vehicle 1118 | POD vs vehicle 1531 | POD vs vehicle 11235 | POD vs vehicle 1565 [1] | POD vs vehicle 1516 [2] | POD vs vehicle 20084 [3] | POD vs vehicle 20032 [4] | POD vs vehicle 1309 [5] | POD vs vehicle 1518 | POD vs vehicle 1083 | POD vs vehicle 30171 | POD vs vehicle 1434 | POD vs vehicle 1392 | POD vs vehicle 30145 | POD vs vehicle 1565 [6] | POD vs vehicle 1516 [7] | POD vs vehicle 20084 [8] | POD vs vehicle 20032 [9] | POD vs vehicle 1309 [10] | POD vs vehicle 1535
OCC(F)(F)C(F)(F)C(F)(F)C(F)(F)C(F)(F)C(F)(F)F [6:1 Fluorotelomer alcohol] | > 100 µM | > 100 µM | > 100 µM | > 100 µM | > 100 µM | > 100 µM | > 100 µM | > 100 µM | > 100 µM | > 100 µM | > 100 µM | > 100 µM | > 100 µM | > 100 µM | > 100 µM | > 100 µM | > 100 µM | > 100 µM | > 100 µM | > 100 µM
OCCC(F)(F)C(F)(F)C(F)(F)C(F)(F)C(F)(F)C(F)(F)F [6:2 Fluorotelomer alcohol] | > 100 µM | > 100 µM | > 100 µM | > 100 µM | > 100 µM | > 100 µM | > 100 µM | > 100 µM | > 100 µM | > 100 µM | > 100 µM | 1.73 µM | > 100 µM | > 100 µM | > 100 µM | > 100 µM | > 100 µM | > 100 µM | > 100 µM | > 100 µM
O=S(=O)(O)CCC(F)(F)C(F)(F)C(F)(F)C(F)(F)C(F)(F)C(F)(F)F [6:2 Fluorotelomer sulfonic acid] | > 100 µM | > 100 µM | > 100 µM | > 100 µM | > 100 µM | > 100 µM | > 100 µM | > 100 µM | > 100 µM | > 100 µM | > 100 µM | > 100 µM | > 100 µM | > 100 µM | 39.6 µM | 33.5 µM | > 100 µM | > 100 µM | > 100 µM | > 100 µM
OCCC(F)(F)C(F)(F)C(F)(F)C(F)(F)C(F)(F)C(F)(F)C(F)(F)C(F)(F)F [8:2 Fluorotelomer alcohol] | > 100 µM | > 100 µM | > 100 µM | > 100 µM | > 100 µM | > 100 µM | > 100 µM | > 100 µM | > 100 µM | > 100 µM | > 100 µM | > 100 µM | > 100 µM | > 100 µM | > 100 µM | > 100 µM | > 100 µM | > 100 µM | > 100 µM | > 100 µM
O=S(=O)(O)CCC(F)(F)C(F)(F)C(F)(F)C(F)(F)C(F)(F)C(F)(F)C(F)(F)C(F)(F)F [8:2 Fluorotelomer sulfonic acid] | > 100 µM | > 100 µM | > 100 µM | > 100 µM | > 100 µM | > 100 µM | > 100 µM | > 100 µM | > 100 µM | 27.8 µM | > 100 µM | > 100 µM | > 100 µM | 15.3 µM | 9.96 µM | 6.6 µM | 0.768 µM | 34.5 µM | 33.9 µM | 60.9 µM
O=C(O)C(F)(F)C(F)(F)C(F)(F)C(F)(F)C(F)(F)C(F)(F)C(F)(F)C(F)(F)Cl [9-Chloro-perfluorononanoic_acid] | > 100 µM | > 100 µM | > 100 µM | > 100 µM | > 100 µM | > 100 µM | > 100 µM | > 100 µM | > 100 µM | > 100 µM | > 100 µM | > 100 µM | > 100 µM | > 100 µM | > 100 µM | 14.9 µM | > 100 µM | 44.8 µM | 84.3 µM | 39.9 µM
O=P(O)(O)CCC(F)(F)C(F)(F)C(F)(F)C(F)(F)C(F)(F)C(F)(F)C(F)(F)C(F)(F)F [((Perfluorooctyl)ethyl)phosphonic_acid] | > 100 µM | > 100 µM | > 100 µM | > 100 µM | > 100 µM | > 100 µM | > 100 µM | > 100 µM | > 100 µM | > 100 µM | > 100 µM | > 100 µM | > 100 µM | > 100 µM | > 100 µM | > 100 µM | > 100 µM | > 100 µM | > 100 µM | > 100 µM
OCC(F)(F)C(F)(F)C(F)(F)C(F)(F)C(F)(F)C(F)F [Dodecafluoroheptanol] | > 100 µM | > 100 µM | > 100 µM | > 100 µM | > 100 µM | > 100 µM | > 100 µM | > 100 µM | > 100 µM | > 100 µM | > 100 µM | > 100 µM | 18 µM | 19.4 µM | 20.3 µM | 18.9 µM | 19.3 µM | 18.3 µM | 19.4 µM | 18.4 µM
OCC(F)(F)C(F)(F)C(F)(F)F [Heptafluorobutanol] | > 100 µM | > 100 µM | > 100 µM | > 100 µM | > 100 µM | > 100 µM | > 100 µM | > 100 µM | > 100 µM | > 100 µM | > 100 µM | > 100 µM | > 100 µM | > 100 µM | > 100 µM | > 100 µM | > 100 µM | > 100 µM | > 100 µM | > 100 µM
